According to US6602910B2, “D-enantiomer of DFMO and methods of use therefor” (priority 2000, dated 2003):
Read-outs that look alike come from different tables or passages of the source.

How the values were obtained:
MCF-7 human breast tumor = assay: MCF-7 human breast cancer xenograft model; assay type: in vivo, Nude mice; details: 0.5% w/v in drinking water; for animals with partial tumor shrinkage: Day 90, eight animals per group; for mean partial tumor shrinkage: Day 90, in the animals with shrinkage; for tumor growth inhibition: Day 90, in the animals without shrinkage
Procedure: FIG. 11 Mean Tumor weight of MCF-7 human breast tumors in nude […].
Nude mice were implanted with the estrogen-dependent human breast tumor line, MCF-7 (ATCC #HTB22). […] The experiment was terminated on Day 90 (when control tumors had reached a size of 400 mg.). Mice were weighed twice weekly, and tumor measurements were taken by calipers twice weekly, starting at time of DFMO administration (Day 1). Tumor measurements were converted to mg tumor weight by the formula, L^2×W/2.

[1] = Plasma levels in rats after single oral dose
[2] = test system: MCF-7, LNCaP, PC-3, HT-29 cancer cell lines; assay: Induction of apoptosis in cell lines (DNA fragmentation ELISA, Hoechst staining); assay type: cell-based, human; details: DFMO forms at 1 and 10 uM
Procedure: Each of the three forms of DFMO were tested at two concentrations (1 and 10 uM). Adriamycin and calcium chloride were used as positive controls. Apoptosis was assayed using a multi-well plate DNA fragmentation assay according to the Cellular DNA Fragmentation ELISA kit (Boehringer Mannheim Biochemicals, Cat. #1585-045) and Hoechst staining.

pigmented guinea pigs [3] = assay: General toxicity in guinea pigs (mortality, weight gain), daily ip injection; assay type: in vivo, guinea pig
Description: Daily weight measurements determined the injection volume.

pigmented guinea pigs [4] = test system: pigmented guinea pigs
Procedure: Auditory thresholds were assessed in the 0.5 g/kg and 1 g/kg/day subjects at day 45 of dosing while the 2 g/kg/day subjects were evaluated at 22 days of dosing. […] Daily weight measurements determined the injection volume. Assessment of auditory function occurred at the conclusion of dosing.
Injections, determined by daily weight measurements, were made ip daily for 45 days.
Continuous tones were used for eliciting CM. Tone bursts were used to elicit the CAP.

tumor putrescine levels = details: rat-tumor model, infusion; cited from earlier work
[5] = rats, 200 mg/kg/day to 1.2 g/kg/day by intubation, up to eight weeks
Procedure: Twenty-four Long Evans pigmented rats (250-275 g) were acquired from Harlan Sprague Dawley (Indianapolis, Ind.) and thirty-six pigmented guinea pigs obtained from Kuiper Rabbit Ranch (Gary, Ind.) at an initial weight of 200-250 g and housed in University of Oklahoma Health Sciences Center animal facility. Subjects were housed under a 12:12 hr light dark cycle with free access to food and water with a room temperature controlled at 21° C.
Twenty-four animals were randomly placed into 8 groups of three subjects each. […] Four additional animals were randomly placed into 2 subsequent groups: 400 and 600 mg/kg/day by gavage twice a day (5 days/week) for 8 weeks. […] Weight measurements were taken daily (5 days/week) with assessment of auditory function performed at the conclusion of dosing.

[6] = test system: hair cells of the basilar membrane; assay: Histology of Organ of Corti surface preparations (SDH staining, hair cell damage); details: one guinea pig, 1 g/kg/day for 45 days; most apical 40% normal
Procedure: Surface preparations of the Organ of Corti were evaluated in a limited number of subjects. The animals were decapitated while deeply anesthetized after CAP and CM recording. Cochleae were removed immediately. Both the round and oval windows were opened and the apex of the cochlea was drilled open to facilitate perfusion. The cochleae were perfused with SDH (succinate dehydrogenase) incubative solution (0.05 M sodium succinate, 0.05 M phosphate buffer and 0.05% TetraNitro Blue Tetrazolium) and immersed in the solution for one h (37° C.). Then the cochleae were fixed with 10% formalin for at least 2 days. After fixation, the cochleae were decalcified in 10% EDTA solution (EthyleneDiamine Tetraacetic Acid) for 3 days or longer as needed. Cochlea microdissection was accomplished under a light microscope.
Locations along the surface of the basilar membrane were identified by percent distance from apex, and can be related to the physiological data because sound is encoded in a tonotopic fashion with the highest frequencies represented in the most basal portion of the cochlea.

[7] = rat, in vivo, po, 200 mg/kg

In the case of (−)-4-difluoromethyl-ornithine [L-DFMO], the “animals with partial tumor shrinkage” value (MCF-7 human breast tumor) is reported as “seven of eight”, the “mean partial tumor shrinkage” value (MCF-7 human breast tumor) is reported as 50.0% and the tumor growth inhibition (MCF-7 human breast tumor) is reported as 5.5%. For the same molecule, the plasma level ([1]; 200 mg/kg orally, one to two hours) was 45 µg/mL.

In the case of `COc1cccc2c1C(=O)c1c(O)c3c(c(O)c1C2=O)C[C@@](O)(C(=O)CO)C[C@@H]3O[C@H]1C[C@H](N)[C@H](O)[C@H](C)O1` [adriamycin], the apoptosis and cytotoxicity [2] is reported as “cytotoxic as well as apoptotic”.

In the case of `NCCCC(N)(C(=O)O)C(F)F` (racemic) [D,L-DFMO, 2-(Difluoromethyl)-DL-ornithine], the “animals with partial tumor shrinkage” value (MCF-7 human breast tumor) is reported as “seven of eight”, the “mean partial tumor shrinkage” value (MCF-7 human breast tumor) is reported as 60.4% and the tumor growth inhibition (MCF-7 human breast tumor) is reported as 99.2%. For the same molecule, the “systemic toxicity (growth rate)” value (pigmented guinea pigs [3]; 500 mg/kg/day ip, 45 days) was “no apparent signs of systemic toxicity”, the weight gain (pigmented guinea pigs [3]; 1 g/kg/day ip, 45 days) was “appear to diverge from the controls during the last 10 days” and the “subjects that did not survive” value (pigmented guinea pigs [3]; 1 g/kg/day ip, full 6 week dosing regimen) was “two of the five”. The weight gain (pigmented guinea pigs [3]; 2 g/kg/day ip, to day 22) was “effectively blocked”, the animals dying (pigmented guinea pigs [3]; 3 g/kg/day ip, within the first six days) was 100% and the “average loss of auditory sensitivity (CAP), 20 to 40 kHz” value (“average loss of auditory sensitivity” below) (pigmented guinea pigs [4]; 500 mg/kg/day ip, day 45) was 7.1 dB. The “CAP threshold elevation, average” value (pigmented guinea pigs [4]; 500 mg/kg/day ip, day 45, all frequencies) was 9 dB, the “effect on CM sensitivity” value (pigmented guinea pigs [4]; 500 mg/kg/day to 2 g/kg/day ip) was “not effected” and the “average loss of auditory sensitivity” value (pigmented guinea pigs [4]; 1 g/kg/day ip, day 45) was 17 dB. The “CAP threshold average loss across all frequencies” value (pigmented guinea pigs [4]; 2 g/kg/day ip, 22 days) was 14 dB, the “average loss of auditory sensitivity” value (pigmented guinea pigs [4]; 2 g/kg/day ip, 22 days) was 30 dB and the “decrease in tumor putrescine levels” value (tumor putrescine levels) was 90%. For the same molecule, the weight change [5] was “does not produce any significant weight change”, the “portion of basilar membrane showing hair cell damage” value [6] was 60% and the maximum plasma level ([1]; 400 mg/kg orally) was 109 µg/mL.

With `NCCC[C@@](N)(C(=O)O)C(F)F` [D-DFMO, D enantiomer of difluoromethylornithine] the “animals with partial tumor shrinkage” value (MCF-7 human breast tumor) was “four of eight”, the “mean partial tumor shrinkage” value (MCF-7 human breast tumor) was 62.6% and the tumor growth inhibition (MCF-7 human breast tumor) was 84.7%. For the same molecule, the toxic death (MCF-7 human breast tumor; eight animals per group) was “two animals experienced toxic death” and the plasma level [7] was 102 µg/mL.
